Values quoted from earlier work as cited in patent US12233088B2 (Alexion Pharmaceuticals, Inc., priority 2017, dated 2025).

System: patients with Wilson's disease
Details: cited from earlier work; for patients with worsening of neurological symptoms on initiation of treatment: reported

Compound	patients with worsening of neurological symptoms on initiation of treatment	mean time to neurological worsening from initiation (Litwin et al.)	patients with early neurological worsening, n (%) (of 42 patients with neurological Wilson's disease, Litwin et al.)	children with gastrointestinal adverse events (Polish cohort, Wiernicka et al.)	patients who discontinued treatment because of adverse events (retrospective study)
NCCNCCNCCN [trientine]	approximately 25%				
CC(C)(S)[C@@H](N)C(=O)O [penicillamine, D-penicillamine]	approximately 25%	2.3 months	12 (29%)		
[Zn] [zinc]				40%	11%
